Data taken from patent US9045491B2, “Thienyl [3,2-D] pyrimidin-4-one compounds, preparation method, pharmaceutical compositions and use thereof” (SHANGHAI INSTITUTE OF MATERIA MEDICA, CHINESE ACADEMY OF …, priority 2011, dated 2015).

What was measured:
Format in all cases: biochemical
human DPP IV = target: T1, human DPP IV (Homo sapiens, UniProt P27487); test: DPP IV activity screening (Ala-Pro-AMC fluorescence)
T1 construct: extracellular fragment of protease DPP IV (aa29-766); made in house; host or cells: baculovirus expression system Bac-to-Bac
Description: (§1) Screening method: dipeptidyl peptidase IV (DPP IV) activity screening, dipeptidyl peptidase 7 (DPP 7), dipeptidyl peptidase 8 (DPP 8) activity screening, and dipeptidyl peptidase 9 (DPP 9) activity screening.
Instruments: Microplate Reader (PerkinElmer, USA).
The linear change of fluorescence value at 460 nm in unit time was dynamically measured and DPP IV activity was obtained by calculation.
(§2) Sample treatment: the sample was dissolved in DMSO and stored in low temperature. The concentration of DMSO in the final system was controlled so that the detected activity was not affected.
(§3) The activity of sample was tested under the selected single concentration from preliminary screening, for example, 20 μg/mL. […] The software for calculation was Graphpad Prism 4 and the model used for fitting was sigmoidal dose-response (variable slope). For most inhibitor screening models, the bottom and top of the fitting curve were set to 0 and 100.

[1] = target: dipeptidyl peptidase 7 (DPP 7) (Homo sapiens, UniProt Q9UHL4); test: DPP 7 activity screening; details: N.I. = No Inhibition
Description: as §1, §2, §3

human DPP 8 = target: T2, human DPP 8 (Homo sapiens, UniProt Q6V1X1); test: DPP 8 activity screening (Ala-Pro-AMC fluorescence); details: N.I. = No Inhibition
T2 construct: made in house; host or cells: insect cells, baculovirus Bac-to-Bac
Source text: as §1
(§4) Materials: human DPP IV, obtained extracellular fragment of protease DPP IV (aa29-766), was expressed and purified by our laboratory using baculovirus expression system Bac-to-Bac (purchased from GIBCO company) in accordance with the conventional experimental technology; human DPP 8 was obtained in insect cells by our laboratory using baculovirus expression system Bac-to-Bac (purchased from GIBCO company) in accordance with the conventional experimental technology; Human DPP 9 was obtained in insect cells by our laboratory using baculovirus expression system Bac-to-Bac (purchased from GIBCO company) in accordance with the conventional experimental technology; and the substrate Ala-Pro-AMC was synthesized by GL Biochem (Shanghai) Ltd.
(§5) Principle of Activity test: DPP IV, DPP 8 and DPP 9 can specifically hydrolyze the substrate Ala-Pro-AMC to form product AMC, and AMC is excited by 355 nm of UV light to generate 460 nm of emission light. The linear change of fluorescence value at 460 nm in unit time was dynamically measured and DPP IV activity was obtained by calculation.
as §2, §3

Human DPP 9 = target: T3, Human DPP 9 (Homo sapiens, UniProt Q86TI2); test: DPP 9 activity screening (Ala-Pro-AMC fluorescence); details: N.I. = No Inhibition
T3 construct: made in house; host or cells: insect cells, baculovirus Bac-to-Bac
Source text: as §1, §4, §5, §2, §3

T2 sequence (Q6V1X1 whole entry): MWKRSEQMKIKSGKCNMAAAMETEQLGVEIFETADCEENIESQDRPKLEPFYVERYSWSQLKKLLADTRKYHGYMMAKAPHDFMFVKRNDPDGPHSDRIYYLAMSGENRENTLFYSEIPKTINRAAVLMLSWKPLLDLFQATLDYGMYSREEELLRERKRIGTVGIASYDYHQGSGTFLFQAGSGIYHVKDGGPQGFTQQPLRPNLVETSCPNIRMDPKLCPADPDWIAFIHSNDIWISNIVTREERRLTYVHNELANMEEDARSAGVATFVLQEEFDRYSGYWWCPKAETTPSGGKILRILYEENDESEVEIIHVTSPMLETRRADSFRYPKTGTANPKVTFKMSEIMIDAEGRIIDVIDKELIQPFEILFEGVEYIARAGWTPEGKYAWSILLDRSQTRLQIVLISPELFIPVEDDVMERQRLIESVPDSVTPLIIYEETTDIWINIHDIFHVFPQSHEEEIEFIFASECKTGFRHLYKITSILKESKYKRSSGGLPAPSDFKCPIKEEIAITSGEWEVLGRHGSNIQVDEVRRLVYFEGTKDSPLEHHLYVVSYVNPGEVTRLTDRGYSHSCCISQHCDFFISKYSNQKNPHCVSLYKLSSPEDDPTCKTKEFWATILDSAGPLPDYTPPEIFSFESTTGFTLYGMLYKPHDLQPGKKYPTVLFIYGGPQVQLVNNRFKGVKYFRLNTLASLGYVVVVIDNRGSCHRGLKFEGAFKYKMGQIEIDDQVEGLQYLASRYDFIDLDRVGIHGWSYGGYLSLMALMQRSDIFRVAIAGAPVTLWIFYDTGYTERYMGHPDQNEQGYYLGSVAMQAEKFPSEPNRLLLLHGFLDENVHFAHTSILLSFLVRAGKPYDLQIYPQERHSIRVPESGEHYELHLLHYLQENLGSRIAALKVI
T1 sequence (P27487 29-766): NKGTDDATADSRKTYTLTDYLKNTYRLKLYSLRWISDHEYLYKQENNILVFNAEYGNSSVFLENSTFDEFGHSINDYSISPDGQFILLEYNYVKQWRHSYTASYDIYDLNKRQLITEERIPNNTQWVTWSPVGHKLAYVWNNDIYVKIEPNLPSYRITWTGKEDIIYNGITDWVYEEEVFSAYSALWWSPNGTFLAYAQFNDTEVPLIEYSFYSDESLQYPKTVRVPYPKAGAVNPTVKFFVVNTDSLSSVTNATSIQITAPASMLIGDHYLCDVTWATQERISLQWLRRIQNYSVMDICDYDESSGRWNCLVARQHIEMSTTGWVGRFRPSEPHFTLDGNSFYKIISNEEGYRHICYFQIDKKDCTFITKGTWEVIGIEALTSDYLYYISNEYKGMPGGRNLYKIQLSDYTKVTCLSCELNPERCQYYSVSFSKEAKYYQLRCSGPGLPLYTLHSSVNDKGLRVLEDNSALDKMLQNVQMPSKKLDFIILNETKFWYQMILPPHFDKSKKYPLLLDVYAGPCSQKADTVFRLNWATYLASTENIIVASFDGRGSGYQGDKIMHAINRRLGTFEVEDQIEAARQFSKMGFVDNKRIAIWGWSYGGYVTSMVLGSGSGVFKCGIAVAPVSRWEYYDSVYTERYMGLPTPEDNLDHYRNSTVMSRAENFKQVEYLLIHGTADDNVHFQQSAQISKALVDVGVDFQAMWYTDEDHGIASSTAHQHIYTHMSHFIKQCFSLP
T3 sequence (Q86TI2 whole entry): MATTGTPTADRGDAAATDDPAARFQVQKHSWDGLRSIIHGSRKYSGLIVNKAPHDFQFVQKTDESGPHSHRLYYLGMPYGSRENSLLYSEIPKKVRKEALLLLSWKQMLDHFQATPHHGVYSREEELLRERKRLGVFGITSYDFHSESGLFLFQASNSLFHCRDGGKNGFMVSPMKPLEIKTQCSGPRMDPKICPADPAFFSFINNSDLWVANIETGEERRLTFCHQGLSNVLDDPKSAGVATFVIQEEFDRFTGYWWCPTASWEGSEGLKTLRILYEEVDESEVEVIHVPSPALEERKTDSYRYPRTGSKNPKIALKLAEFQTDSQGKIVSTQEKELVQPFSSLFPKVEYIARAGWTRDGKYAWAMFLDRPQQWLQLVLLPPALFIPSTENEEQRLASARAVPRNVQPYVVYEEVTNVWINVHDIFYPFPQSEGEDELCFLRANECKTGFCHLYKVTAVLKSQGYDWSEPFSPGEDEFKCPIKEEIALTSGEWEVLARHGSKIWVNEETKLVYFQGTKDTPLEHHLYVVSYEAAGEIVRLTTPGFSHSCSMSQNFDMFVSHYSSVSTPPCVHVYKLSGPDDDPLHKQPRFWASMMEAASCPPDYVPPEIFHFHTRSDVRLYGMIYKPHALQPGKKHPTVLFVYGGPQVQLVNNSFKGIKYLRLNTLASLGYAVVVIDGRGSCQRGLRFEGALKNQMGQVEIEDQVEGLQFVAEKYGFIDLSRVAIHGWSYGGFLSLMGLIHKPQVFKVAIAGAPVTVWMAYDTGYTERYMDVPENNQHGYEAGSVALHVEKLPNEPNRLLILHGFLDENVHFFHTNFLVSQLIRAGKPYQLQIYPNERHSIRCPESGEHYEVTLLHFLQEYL

Row | SMILES | IC50 (human DPP IV) | DPP 7 IC50 [1] | DPP 8 IC50 (human DPP 8) | DPP 9 IC50 (Human DPP 9) | IC50 (human DPP 8) | IC50 (Human DPP 9)
1 | N#Cc1ccccc1Cn1c(N2CCC[C@@H](N)C2)nc2cc(F)sc2c1=O [Compound 1, (R)-2-((2-(3-aminopiperidin-1-yl)-6-fluoro-4-oxothieno[3,2-d]pyrimidin-3(4H)-yl)methyl)benzonitrile] | 34.7 nM |  |  |  |  | 
2 | N#Cc1ccccc1Cn1c(N2CCC[C@@H](N)C2)nc2c(Br)csc2c1=O [Compound 4, (R)-2-((2-(3-aminopiperidin-1-yl)-7-bromo-4-oxothieno[3,2-d]pyrimidin-3(4H)-yl)methyl)benzonitrile] | 8.78 nM |  |  |  |  | 
3 | N#Cc1ccccc1Cn1c(N2CCC[C@@H](N)C2)nc2cc(Cl)sc2c1=O [Compound 8, (R)-2-((2-(3-aminopiperidin-1-yl)-6-chloro-4-oxothieno[3,2-d]pyrimidin-3 (4H)-yl)methyl)benzonitrile] | 45.6 nM |  |  |  |  | 
4 | N#Cc1ccccc1Cn1c(N2CCC[C@@H](N)C2)nc2c(Cl)csc2c1=O [Compound 9, (R)-2-((2-(3-aminopiperidin-1-yl)-7-chloro-4-oxothieno[3,2-d]pyrimidin-3-(4H)-yl)methyl)benzonitrile] | 36.8 nM |  |  |  |  | 
5 | N#Cc1ccccc1Cn1c(N2CCC[C@@H](N)C2)nc2c(Cl)c(Cl)sc2c1=O [Compound 10, (R)-2-((2-(3-aminopiperidin-1-yl)-6,7-dichloro-4-oxothieno[3,2-d]pyrimidin-3(4H)-yl)methyl)benzonitrile] | 90 nM |  |  |  |  | 
6 | N#Cc1ccccc1Cn1c(N2CCC[C@@H](N)C2)nc2c3c(sc2c1=O)CCCC3 [Compound 27, (R)-2-((2-(3-aminopiperidin-1-yl)-4-oxo-6,7,8,9-tetrahydrobenzo[4,5]thieno-[3,2-d]pyrimidin-3(4H)-yl)methyl)-benzonitrile] | 35.5 nM |  |  |  |  | 
7 | N#Cc1ccccc1Cn1c(N2CCC[C@@H](N)C2)nc2c(CO[C@H]3CCOC3)csc2c1=O [Compound 87, 2-((2-((R)-3-aminopiperidin-1-yl)-4-oxo-7-((((S)-tetrahydrofuran-3-yl)oxy)methyl)thieno[3,2-d]pyrimidin-3(4H)-yl)methyl)benzonitrile] | 26.5 nM | N.I. | N.I. | N.I. |  | 
8 | CCOC(=O)CCNC(=O)c1csc2c(=O)n(Cc3ccccc3C#N)c(N3CCC[C@@H](N)C3)nc12 [Compound 88, (R)-ethyl 3-(2-(3-aminopiperidin-1-yl)-3-(2-cyanobenzyl)-4-oxo-3,4-dihydrothieno[3,2-d]pyrimidine-7-carboxamido)propanoate] | 14.8 nM | N.I. |  | N.I. | 54900 nM | 
9 | CCOC(=O)CCCNC(=O)c1csc2c(=O)n(Cc3ccccc3C#N)c(N3CCC[C@@H](N)C3)nc12 [Compound 89, (R)-ethyl 4-(2-(3-aminopiperidin-1-yl)-3-(2-cyanobenzyl)-4-oxo-3,4-dihydrothieno[3,2-d]pyrimidine-7-carboxamido)butanoate] | 14.3 nM | N.I. |  | N.I. | 39400 nM | 
10 | CS(=O)(=O)CCNC(=O)c1csc2c(=O)n(Cc3ccccc3C#N)c(N3CCC[C@@H](N)C3)nc12 [Compound 90, (R)-2-(3-aminopiperidin-1-yl)-3-(2-cyanobenzyl)-N-(2-(methylsulfonyl)-ethyl)-4-oxo-3,4-dihydrothieno[3,2-d]-pyrimidine-7-carboxamide] | 14.3 nM | N.I. |  | N.I. | 102000 nM | 
11 | N#Cc1ccccc1Cn1c(N2CCC[C@@H](N)C2)nc2cc(C(Br)Br)sc2c1=O [Compound 98, (R)-2-((2-(3-aminopiperidin-1-yl)-6-(dibromomethyl)-4-oxothieno[3,2-d]-pyrimidin-3(4H)-yl)methyl)benzonitrile] | 9.95 nM | N.I. |  |  |  | 

Continued, values first:

Row | IC50 (human DPP IV) | DPP 7 IC50 [1] | DPP 8 IC50 (human DPP 8) | DPP 9 IC50 (Human DPP 9) | IC50 (human DPP 8) | IC50 (Human DPP 9) | SMILES
12 | 36.4 nM | N.I. |  | N.I. | 88000 nM |  | COC(=O)[C@@H]1CCCN1C(=O)c1csc2c(=O)n(Cc3ccccc3C#N)c(N3CCC[C@@H](N)C3)nc12 [Compound 91, (S)-methyl 1-(2-((R)-3-aminopiperidin-1-yl)-3-(2-cyanobenzyl)-4-oxo-3,4-dihydrothieno[3,2-d]pyrimidine-7-carbonyl)pyrrolidine-2-carboxylate]
13 | 21.7 nM | N.I. |  | N.I. | 76700 nM |  | N#Cc1ccccc1Cn1c(N2CCC[C@@H](N)C2)nc2c(C(=O)N[C@H]3CCOC3=O)csc2c1=O [Compound 92, 2-((R)-3-aminopiperidin-1-yl)-3-(2-cyanobenzyl)-4-oxo-N-((S)-2-oxotetrahydrofuran-3-yl)-3,4-dihydrothieno[3,2-d]pyrimidine-7-carboxamide]
14 | 14.8 nM | N.I. |  | N.I. | 60700 nM |  | N#Cc1ccccc1Cn1c(N2CCC[C@@H](N)C2)nc2c(C(=O)NCCCO)csc2c1=O [Compound 93, (R)-2-(3-aminopiperidin-1-yl)-3-(2-cyanobenzyl)-N-(3-hydroxypropyl)-4-oxo-3,4-dihydrothieno[3,2-d]pyrimidine-7-carboxamide]
15 | 19.8 nM | N.I. |  | N.I. | 223000 nM |  | N#Cc1ccccc1Cn1c(N2CCC[C@@H](N)C2)nc2cc(C(=O)NCCO)sc2c1=O [Compound 123, (R)-2-(3-aminopiperidin-1-yl)-3-(2-cyanobcnzyl)-N-(2-hydroxyethyl)-4-oxo-3,4-dihydrothieno[3,2-d]-pyrimidine-6-carboxamide]
16 | 26.9 nM | N.I. |  | N.I. | 43900 nM |  | N#Cc1ccccc1Cn1c(N2CCC[C@@H](N)C2)nc2cc(C(=O)N3CCC(CO)CC3)sc2c1=O [Compound 124, (R)-2-((2-(3-aminopiperidin-1-yl)-6-(4-(hydroxymethyl)piperidine-1-carbonyl)-4-oxothieno[3,2-d]pyrimidin-3(4H)-yl)methyl)benzonitrile]
17 | 33.8 nM | N.I. |  |  | 15500 nM | 172000 nM | COC(=O)[C@@H]1CCCN1C(=O)c1cc2nc(N3CCC[C@@H](N)C3)n(Cc3ccccc3C#N)c(=O)c2s1 [Compound 125, (S)-methyl 1-(2-((R)-3-aminopiperidin-1-yl)-3-(2-cyanobenzyl)-4-oxo-3,4-dihydrothieno[3,2-d]pyrimidine-6-carbonyl)pyrrolidine-2-carboxylate]
18 | 20.1 nM | N.I. |  | N.I. | 55900 nM |  | CS(=O)(=O)CCNC(=O)c1cc2nc(N3CCC[C@@H](N)C3)n(Cc3ccccc3C#N)c(=O)c2s1 [Compound 126, (R)-2-(3-aminopiperidin-1-yl)-3-(2-cyanobenzyl)-N-(2-(methylsulfonyl)-ethyl)-4-oxo-3,4-dihydrothieno[3,2-d]-pyrimidine-6-carboxamide]
19 | 24.6 nM | N.I. |  | N.I. | 52700 nM |  | N#Cc1ccccc1Cn1c(N2CCC[C@@H](N)C2)nc2cc(C(=O)N[C@H]3CCOC3=O)sc2c1=O [Compound 127, 2-((R)-3-aminopiperidin-1-yl)-3-(2-cyanobenzyl)-4-oxo-N-((S)-2-oxotetrahydrofuran-3-yl)-3,4-dihydrothieno[3,2-d]pyrimidine-6-carboxamide]
20 | 30.7 nM | N.I. |  | N.I. | 39000 nM |  | N#Cc1ccccc1Cn1c(N2CCC[C@@H](N)C2)nc2cc(C(=O)N3CCC[C@H]3CO)sc2c1=O [Compound 128, 2-((2-((R)-3-aminopiperidin-1-yl)-6-((S)-2-(hydroxymethyl)pyrrolidine-1-carbonyl)-4-oxothieno[3,2-d]pyrimidin-3(4H)-yl)methyl)benzonitrile]
21 | 33.9 nM | N.I. |  | N.I. | 16300 nM |  | CCOC(=O)C1CCN(C(=O)c2cc3nc(N4CCC[C@@H](N)C4)n(Cc4ccccc4C#N)c(=O)c3s2)CC1 [Compound 129, (R)-ethyl 1-(2-(3-aminopiperidin-1-yl)-3-(2-cyanobenzyl)-4-oxo-3,4-dihydrothieno[3,2-d]pyrimidine-6-carbonyl)piperidine-4-carboxylate]
